In ChEMBL document CHEMBL4808235, “Identification of 6-hydroxy-5-phenyl sulfonylpyrimidin-4(1H)-one APJ receptor agonists” (Bioorg Med Chem Lett, 2021):

What was measured:
[1] = Permeability of the compound at pH 5.5 by PAMPA; format: ADME; conditions: read-out: permeability
[2] = Metabolic stability in mouse liver microsomes assessed as parent compound remaining incubated for 10 mins in presence of NADPH; format: ADME, Microsome; conditions: read-out: Stabilty
Apelin receptor [3] = biological target: T1, Apelin receptor (Mus musculus, UniProt Q9WV08); test: Agonist activity at mouse APJ receptor assessed as effect on cAMP accumulation by cAMP-Glo assay
T1 sequence (Q9WV08 whole entry): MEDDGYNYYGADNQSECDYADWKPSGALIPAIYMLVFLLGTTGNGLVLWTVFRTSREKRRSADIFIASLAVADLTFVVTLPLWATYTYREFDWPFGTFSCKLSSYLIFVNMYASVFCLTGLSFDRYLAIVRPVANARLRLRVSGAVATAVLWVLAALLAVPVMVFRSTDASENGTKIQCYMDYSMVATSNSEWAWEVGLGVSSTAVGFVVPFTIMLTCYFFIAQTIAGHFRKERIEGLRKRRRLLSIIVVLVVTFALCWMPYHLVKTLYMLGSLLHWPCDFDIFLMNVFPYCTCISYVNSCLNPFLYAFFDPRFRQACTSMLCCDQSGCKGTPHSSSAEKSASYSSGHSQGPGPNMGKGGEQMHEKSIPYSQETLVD

[4] = Metabolic stability in rat liver microsomes assessed as parent compound remaining incubated for 10 mins in presence of NADPH; format: ADME, Microsome; conditions: read-out: Stabilty
[5] = Permeability of the compound at pH 7.4 by PAMPA; format: ADME; conditions: read-out: permeability
[6] = Metabolic stability in human liver microsomes assessed as parent compound remaining incubated for 10 mins in presence of NADPH; format: ADME, Microsome; conditions: read-out: Stabilty
Apelin receptor [7] = biological target: T2, Apelin receptor (Rattus norvegicus, UniProt Q9JHG3); test: Agonist activity at rat APJ receptor assessed as effect on cAMP accumulation by cAMP-Glo assay; format: functional
T2 sequence (Q9JHG3 whole entry): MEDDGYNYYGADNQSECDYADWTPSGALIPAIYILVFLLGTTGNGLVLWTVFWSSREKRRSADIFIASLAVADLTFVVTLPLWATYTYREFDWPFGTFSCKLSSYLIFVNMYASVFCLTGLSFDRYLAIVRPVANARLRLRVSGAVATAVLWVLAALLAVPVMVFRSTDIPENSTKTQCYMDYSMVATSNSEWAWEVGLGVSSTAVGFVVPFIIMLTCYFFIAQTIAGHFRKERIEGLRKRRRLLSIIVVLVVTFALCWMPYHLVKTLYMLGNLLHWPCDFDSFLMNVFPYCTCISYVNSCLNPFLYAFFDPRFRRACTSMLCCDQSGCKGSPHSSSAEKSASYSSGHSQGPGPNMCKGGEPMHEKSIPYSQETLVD

Apelin receptor [8] = biological target: T3, Apelin receptor (Homo sapiens, UniProt P35414); test: Agonist activity at human APJ receptor assessed as effect on cAMP accumulation by cAMP-Glo assay; format: functional
T3 sequence (P35414 whole entry): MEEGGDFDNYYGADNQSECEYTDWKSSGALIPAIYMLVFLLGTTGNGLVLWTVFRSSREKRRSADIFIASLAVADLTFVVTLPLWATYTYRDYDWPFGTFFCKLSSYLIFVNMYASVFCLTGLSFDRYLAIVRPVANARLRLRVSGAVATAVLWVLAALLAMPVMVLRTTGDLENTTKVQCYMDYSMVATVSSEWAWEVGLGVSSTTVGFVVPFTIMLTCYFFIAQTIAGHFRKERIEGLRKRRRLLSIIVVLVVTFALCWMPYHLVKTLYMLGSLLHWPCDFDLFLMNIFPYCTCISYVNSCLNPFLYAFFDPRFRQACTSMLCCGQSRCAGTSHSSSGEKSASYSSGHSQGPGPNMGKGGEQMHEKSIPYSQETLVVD

in vivo [9] = conditions: rat, po, 1 mg/kg
[10] = Half life in rat at 1 mg/kg, po; format: ADME, organism-based; conditions: in vivo
[11] = AUC (0 to 24 hrs) in rat at 1 mg/kg, po; format: ADME, organism-based; parameters: time < 24 hr, route oral, dose 1 mg/kg; conditions: in vivo
[12] = Cmax in rat at 1 mg/kg, po; format: ADME, organism-based; parameters: route oral, dose 1 mg/kg; conditions: in vivo
Rattus norvegicus [13] = test: Hemodynamic activity in Sprague-Dawley rat model of acute pressure-volume loop model assessed as increase in cardiac output at 10 mg/kg/min administered as iv infusion for 15 mins relative to control; format: functional; conditions: 0.25 h
[14] = Toxicity activity in Sprague-Dawley rat model of acute pressure-volume loop model assessed as change in blood pressure at 10 mg/kg/min administered as iv infusion for 15 mins relative to control; format: organism-based; conditions: in vivo, 0.25 h
[15] = Cmax in cynomolgus monkey at 3 mg/kg, po; format: ADME, organism-based, Macaca fascicularis; parameters: route oral, dose 3 mg/kg; conditions: in vivo
[16] = Plasma concentration in Sprague-Dawley rat model of acute pressure-volume loop model at 10 mg/kg/min administered as iv infusion for 15 mins; format: ADME, organism-based
[17] = Plasma concentration in Sprague-Dawley rat model of acute pressure-volume loop model at 10 mg/kg/min administered as iv infusion for 5 mins; format: ADME, organism-based
Rattus norvegicus [18] = test: Hemodynamic activity in Sprague-Dawley rat model of acute pressure-volume loop model assessed as increase in dP/dT at 10 mg/kg/min administered as iv infusion for 15 mins relative to control; format: functional; conditions: 0.25 h
[19] = Toxicity activity in Sprague-Dawley rat model of acute pressure-volume loop model assessed as change in heart rate at 10 mg/kg/min administered as iv infusion for 15 mins relative to control; format: organism-based; conditions: in vivo, 0.25 h
[20] = Plasma concentration in Sprague-Dawley rat model of acute pressure-volume loop model assessed as free fraction at 10 mg/kg/min administered as iv infusion for 5 mins; format: ADME, organism-based; conditions: in vivo
[21] = Plasma concentration in Sprague-Dawley rat model of acute pressure-volume loop model assessed as free fraction at 10 mg/kg/min administered as iv infusion for 15 mins; format: ADME, organism-based; conditions: in vivo, 0.25 h
in vivo [22] = conditions: cynomolgus monkey, po, 3 mg/kg
Description: AUC (0 to infinity) in cynomolgus monkey at 3 mg/kg, po

Row | Papp [1] [×10⁻⁶ cm/s] | remaining at 10 min [2] [%] | EC50 (Apelin receptor [3]) [nM] | remaining at 10 min [4] [%] | Papp [5] [×10⁻⁶ cm/s] | remaining at 10 min [6] [%] | EC50 (Apelin receptor [7]) [nM] | EC50 (Apelin receptor [8]) [nM] | SMILES | also measured
1 | 7.5 | 90 | 0.03 | 30 | 0.4 | 84 | 0.02 | 0.01 | COc1cccc(OC)c1-n1c(COC(C)C)nc(=O)c(S(=O)(=O)c2ccc(-c3ccc(F)nc3)cc2)c1O | –
2 | 8.3 | 100 | 0.02 | 74 | – | 94 | 0.01 | 0.05 | CCCCc1nc(=O)c(S(=O)(=O)c2ccc(-n3cc(Cl)ccc3=O)cc2)c(O)n1-c1c(OC)cccc1OC | –
3 | – | – | 0.027 | – | – | – | – | – | CCOCc1nc(O)c(-c2nnc(Cc3ccc(Cl)cn3)o2)c(O)c1-c1c(OC)cccc1OC [BMS-986224] | AUC(0-inf) (in vivo [9]): 15.5 µM·h; half-life [10]: 2.3 h; AUC(0-t) at 24 h [11]: 16 µM·h; Cmax [12]: 5300 nM
4 | 51.6 | 69 | 0.02 | 2 | 2.4 | 100 | 0.004 | 0.002 | CCCCc1nc(=O)c(S(=O)(=O)c2ccc(-c3ccc(F)nc3)cc2)c(O)n1-c1c(OC)cccc1OC | –
5 | – | 24 | 0.2 | – | – | 72 | 0.7 | 0.03 | CCCCc1[nH]c(=O)c(S(=O)(=O)c2ccc(-c3cccnc3OC)cc2)c(O)c1-c1c(OC)cccc1OC | –
6 | 20.2 | 57 | 0.05 | 3 | 0.6 | 88 | 0.05 | 0.04 | CCCCc1nc(=O)c(S(=O)(=O)c2ccc(-c3cccnc3)cc2)c(O)n1-c1c(OC)cccc1OC | –
7 | – | – | 5 | – | – | – | 10 | 5 | COc1cccc(OC)c1-n1c(-c2cncc(C)c2)nc(=O)c(S(=O)(=O)c2ccc(C3CC3)cc2)c1O | –
8 | 28.5 | 64 | 0.1 | 72 | 2.2 | 97 | 0.2 | 0.03 | CCCCc1[nH]c(=O)c(S(=O)(=O)c2ccc(-n3cc(Cl)ccc3=O)cc2)c(O)c1-c1c(OC)cccc1OC | –
9 | 14.1 | 79 | 1 | 93 | 0.15 | 89 | 0.9 | 0.5 | CCCCc1nc(=O)c(S(=O)(=O)c2ccccc2)c(O)n1-c1c(OC)cccc1OC | –
10 | 45.6 | 98 | 0.03 | 27 | – | 97 | 0.02 | 0.01 | CCCCc1nc(=O)c(S(=O)(=O)c2ccc(-c3cccnc3OC)cc2)c(O)n1-c1c(OC)cccc1OC | –
11 | – | – | 0.4 | – | – | – | 1.5 | 0.3 | COc1cccc(OC)c1-n1c(C2CCCC2)nc(=O)c(S(=O)(=O)c2ccc(C3CC3)cc2)c1O | –
12 | 61.5 | 93 | 0.03 | 59 | 2.2 | 95 | 0.06 | 0.02 | CCCCc1nc(=O)c(S(=O)(=O)c2ccc(C3CC3)cc2)c(O)n1-c1c(OC)cccc1OC | Activity (Rattus norvegicus [13]): 11%; Activity [14]: Non-Toxic; Cmax [15]: 1500 nM; concentration at 0.25 h [16]: 5800 nM; concentration at 5 min [17]: 2600 nM; AUC(0-inf) (in vivo [9]): 3.9 µM·h; Activity (Rattus norvegicus [18]): 14%; half-life [10]: 5.6 h; Activity [19]: Non-Toxic; Cp(f) [20]: 5.2 nM; Cp(f) [21]: 12 nM; Cmax [12]: 6200 nM; AUC(0-inf) (in vivo [22]): 4.7 µM·h
13 | 41.8 | 47 | 0.1 | 5 | 13.2 | 100 | 0.02 | 0.08 | CCCCc1nc(=O)c(S(=O)(=O)c2ccc(-c3ccc(F)cc3)cc2)c(O)n1-c1c(OC)cccc1OC | –
14 | 24.3 | 80 | 0.3 | 74 | 0.7 | 94 | 0.3 | 0.2 | CCCCc1nc(=O)c(S(=O)(=O)c2ccc(C)cc2)c(O)n1-c1c(OC)cccc1OC | –
15 | 24.6 | 31 | – | 1 | 3.5 | 89 | 0.03 | – | COc1cccc(OC)c1-n1c(CCC(C)C)nc(=O)c(S(=O)(=O)c2ccc(-c3ccc(F)nc3)cc2)c1O | –
16 | 18.3 | 72 | 0.04 | 72 | 1.1 | 84 | 0.04 | 0.03 | CCCCc1nc(=O)c(S(=O)(=O)c2ccc(-c3ccnc(NC(=O)C4CC4)c3)cc2)c(O)n1-c1c(OC)cccc1OC | half-life [10]: 1.3 h; AUC(0-t) at 24 h [11]: 0.6 µM·h; Cmax [12]: 400 nM
17 | 35.5 | 39 | 0.1 | 57 | 7.6 | 80 | 0.4 | 0.04 | CCCCc1[nH]c(=O)c(S(=O)(=O)c2ccc(-c3ccncc3C)cc2)c(O)c1-c1c(OC)cccc1OC | –
18 | – | – | 5 | – | – | – | 12 | 0.7 | CCCCc1[nH]c(=O)c(S(=O)(=O)c2ccc(-c3ccc(F)nc3)cc2)c(O)c1-c1c(OC)cccc1OC | –
19 | – | – | 34 | – | – | – | 72 | 17 | CCCCc1[nH]c(=O)c(S(=O)(=O)c2ccc(-c3ccc(F)cc3)cc2)c(O)c1-c1c(OC)cccc1OC | –
20 | 1.2 | 63 | 0.03 | 83 | 0.1 | 87 | – | 0.02 | CCCCc1nc(=O)c(S(=O)(=O)c2ccc(-n3ccccc3=O)cc2)c(O)n1-c1c(OC)cccc1OC | –
21 | 17.7 | 75 | 2 | 100 | 0.5 | 100 | 3 | 0.5 | CCCCc1[nH]c(=O)c(S(=O)(=O)c2ccc(-n3ccccc3=O)cc2)c(O)c1-c1c(OC)cccc1OC | –
